According to US11612627B2, “Method for preventing or treating thrombosis” (ANDONG NATIONAL UNIVERSITY INDUSTRY-ACADEMIC COOPERATION …, priority 2020, dated 2023):
“And” between values parts separate entries of the source, which are not always exact repeats. Equal values may be shown once.

How the values were obtained:
[1] = tested on: prothrombin; assay: Prothrombin time (plasma clotting); type: biochemical; conditions: clot time sample/clot time DMSO, 3-carene section Table 3
Experimental: In an Amelung coagulometer KC-1A tube (Japan), 70 μl of standard plasma (MD Pacific Co., China) was heated, together with 10 μl of each of samples having various concentrations, at 37° C. for 3 min before adding 130 μl of PT reagent thereto. […] This experiment was repeated three times independently. The prothrombin time was expressed as a mean value of the three measurements.

[2] = tested on: coagulation factors; assay: aPTT (activated partial thromboplastin time); type: biochemical; conditions: clot time sample/clot time DMSO, 3-carene section Table 3
Experimental: Subsequently, 50 μl of CaCl2 (35 mM) was added. […] Instead of samples, DMSO served as a solvent control. […] The aPPT was expressed as a mean value of the measurements of three independent experiments.
Instead of samples, DMSO served as a solvent control. […] The aPPT was expressed as a mean value of the measurements of three independent experiments.

[3] = tested on: human erythrocytes; assay: Human erythrocyte lysis (hemolysis) activity; type: cell-based
Experimental: In this regard, erythrocyte lysis activity was assayed as reported previously (Sohn, Ho-Yong, 2014. Korean J. Microbiol. Biotechnol. 42: 285-292). Briefly, 100 μl of human erythrocytes, after being washed three times with PBS, was added to each well of 96-well microplates, mixed with 100 μl of each of samples having various concentrations, and incubated at 37° C. for 30 min. Subsequently, the reaction mixture was centrifuged for 10 min (1,500 rpm). After 100 μl of the supernatant was transferred to new microtiter plates, absorbance was read at 414 nm to analyze hemoglobin release according to hemolysis. DMSO (2%) was used as a solvent control for the samples while Triton X-100 (1 mg/ml) served as a control for hemolysis. Hemolysis activity was calculated according to the following equation: (%)Hemolysis=[(Abs. S−Abs. C)/(Abs. T−Abs. C)]×100
Abs. S: Absorbance of sample
Abs. C: Absorbance of DMSO
Abs. T: Absorbance of Triton X-100 added control

[4] = tested on: Human enriched platelets; assay: Platelet aggregation inhibition activity (collagen, whole-blood aggregometer); type: cell-based; conditions: for Platelet Aggregation Activity: AUC sample/AUC DMSO x 100; for Platelet Aggregation Curve: Amplitude / Platelet Aggregation Curve: Area under curve / Platelet Aggregation Curve: Lag time / Platelet Aggregation Curve: Slope: collagen-induced
Experimental: Platelet Aggregation Inhibition Activity Human enriched platelets were used. They were washed once with a washing buffer (138 mM NaCl, 2.7 mM KCl, 12 mM NaHCO3, 0.36 mM NaH2PO4, 5.5 mM Glucose, 1 mM EDTA, pH 6.5) and then resuspended in a suspending buffer (138 mM NaCl, 2.7 mM KCl, 12 mM NaHCO3, 0.36 mM NaH2PO4, 5.5 mM Glucose, 0.49 mM MgCl2, 0.25% gelatin, pH 7.4). Centrifugation at 3,000 rpm for 10 min was followed by resuspension in a suspending buffer, with the platelets adjusted to the density of 4×10^9/ml. Subsequently, 1 ml of the suspension was incubated with 2.5 μl of collagen for 5 min, after which platelet aggregation was measured at 37° C. using a whole-blood aggregometer (Chrono-log, USA).

[5] = miscible with oil; cited from earlier work

For O=C(O)c1ccc(O)cc1 [4-Hydroxybenzoic acid, 4-hydroxybenzoic acid], the “Blood coagulation inhibition activity: Prothrombin Time” value ([1]; 0.5 mg/ml) was 0.99 ± 0.00 and the “Blood coagulation inhibition activity: aPTT” value ([2]; 0.5 mg/ml) was 0.94 ± 0.15.

In the case of C[C@@H]1[C@H](O)[C@@H](C)/C=C/C=C/C=C/C=C/C=C/C=C/C=C/[C@H](O[C@@H]2O[C@H](C)[C@@H](O)[C@H](N)[C@@H]2O)C[C@@H]2O[C@](O)(C[C@@H](O)C[C@@H](O)[C@H](O)CC[C@@H](O)C[C@@H](O)CC(=O)O[C@H]1C)C[C@H](O)[C@H]2C(=O)O [Amphotericin B, amphotericin B], the Human hemolytic activity ([3]; 0.003 mg/ml, flower section Table 3) is reported as 26.5 ± 9.6%, the Human hemolytic activity ([3]; 0.006 mg/ml, flower section Table 3) is reported as 38.0 ± 0.7% and the Human hemolytic activity ([3]; 0.00625 mg/ml, flower section Table 6) is reported as 38.0 ± 0.7%. The Human hemolytic activity ([3]; 0.0125 mg/ml, flower section Table 6) was 48.2 ± 5.9%, the “Human hemolytic activity” value ([3]; 0.0125 mg/ml, leaf section Table 4) was 48.2 ± 5.9% and the Human hemolytic activity ([3]; 0.025 mg/ml, flower section Table 3) was 59.5 ± 6.3%. The Human hemolytic activity ([3]; 0.025 mg/ml, flower section Table 3, listed as amphotericin B) was at least 50%, the Human hemolytic activity ([3]; 0.025 mg/ml, flower section Table 6) was 59.5 ± 6.3% and the “Human hemolytic activity” value ([3]; 0.025 mg/ml, leaf section Table 4) was 59.5 ± 6.3%. For the same compound, the “Human hemolytic activity” value ([3]; 0.025 mg/ml, leaf section Table 4, listed as amphotericin B) was at least 50%, the Human hemolytic activity ([3]; 0.05 mg/ml, flower section Table 3) was 80.7 ± 7.3% and the Human hemolytic activity ([3]; 0.05 mg/ml, flower section Table 6) was 80.7 ± 7.3%. For the same compound, the “Human hemolytic activity” value ([3]; 0.05 mg/ml, leaf section Table 4) was 80.7 ± 7.3%, the Human hemolytic activity ([3]; 0.1 mg/ml, flower section Table 3) was 95.8 ± 0.3% and the Human hemolytic activity ([3]; 0.1 mg/ml, flower section Table 6) was 95.8 ± 0.3%. For the same compound, the “Human hemolytic activity” value ([3]; 0.1 mg/ml, leaf section Table 4) was 95.8 ± 0.3%.

With CC(=O)Oc1ccccc1C(=O)O [Aspirin, aspirin] the “Platelet Aggregation Activity” value ([4]; 0.125 mg/ml) was 82.2%, the “Platelet Aggregation Curve: Amplitude” value ([4]; 0.125 mg/ml) was 14 ohm and the “Platelet Aggregation Curve: Area under curve” value ([4]; 0.125 mg/ml) was 78.0. The “Platelet Aggregation Curve: Lag time” value ([4]; 0.125 mg/ml) was 35 s, the “Platelet Aggregation Curve: Slope” value ([4]; 0.125 mg/ml) was 2 and the “Platelet Aggregation Activity” value ([4]; 0.25 mg/ml) was 49.7%. The “Platelet Aggregation Curve: Amplitude” value ([4]; 0.25 mg/ml) was 8 ohm, the “Platelet Aggregation Curve: Area under curve” value ([4]; 0.25 mg/ml) was 47.2 and the “Platelet Aggregation Curve: Lag time” value ([4]; 0.25 mg/ml) was 128 s. The “Platelet Aggregation Curve: Slope” value ([4]; 0.25 mg/ml) was 1.

With CC1=CCC2C(C1)C2(C)C (stereo not shown) [Extract 3-Carene, 3-carene] the “Blood coagulation inhibition activity: Prothrombin Time” value ([1]; 0.5 mg/ml) was 1.05 ± 0.02, the “Blood coagulation inhibition activity: Prothrombin Time” value ([1]; 0.75 mg/ml) was 1.29 ± 0.00 and the “Blood coagulation inhibition activity: Prothrombin Time” value ([1]; 1.0 mg/ml) was 1.43 ± 0.09. For the same compound, the “Blood coagulation inhibition activity: Prothrombin Time” value ([1]; 1.0 mg/ml, listed as 3-carene) was 1.43, the “Blood coagulation inhibition activity: aPTT” value ([2]; 0.5 mg/ml) was 1.23 ± 0.05 and the “Blood coagulation inhibition activity: aPTT” value ([2]; 0.75 mg/ml) was 1.61 ± 0.03. The “Blood coagulation inhibition activity: aPTT” value ([2]; 1.0 mg/ml) was 2.26 ± 0.08, the “Blood coagulation inhibition activity: aPTT” value ([2]; 1.0 mg/ml, listed as 3-carene) was 2.26 and the Solubility in water [5] was “not soluble in water”.

With Triton X-100 the “Human hemolytic activity” value ([3]; 1.0 mg/ml, 37° C. 30 min, leaf section Table 4) was 100% and 100.0 ± 0.1%, the Human hemolytic activity ([3]; 1.0 mg/ml, flower section Table 3) was 100% and 100.6 ± 0.8% and the Human hemolytic activity ([3]; 1.0 mg/ml, flower section Table 6) was 100.6 ± 0.8%.
